These are literature values, as cited in US20100239661A1, “PHARMACEUTICAL COMPOSITIONS OF URSODIOL” (priority 2006, published 2010).

Assay in data set [1]: not given
The source holds these as a separate data set.

The conditions of data set [2]: for oral absorption: following oral administration.
For data set [3] the following is noted: unconjugated ursodiol, healthy subjects.

Where two headings read alike, the source gives them in different places.

Take `C[C@H](CCC(=O)O)[C@H]1CC[C@H]2[C@@H]3[C@@H](O)C[C@@H]4C[C@H](O)CC[C@]4(C)[C@H]3CC[C@]12C` [Ursodiol, 3α,7β-dihydroxy-5β-cholan-24-oic acid]: the “solubility (characterisation)” value was “low solubility”. Also, in data set [1] (in chloroform), the solubility entry is listed as “slightly soluble”. Moreover, in data set [1] (in ethanol), the solubility result was “freely soluble”. In addition, the solubility result in data set [1] (in ether) was “sparingly soluble”. Further, the solubility result in data set [1] (in glacial acetic acid) is on record as “freely soluble”. The solubility entry in data set [1] (in water) is listed as “practically insoluble”. Besides, the “share of biliary and plasma bile acids” value in data set [2] (chronic dose of 13 to 15 mg/kg/day) was 30-50%. For the same compound, in data set [2], the oral absorption entry is “rapid and complete”. Besides, in data set [2] (listed as ursodiol), the oral absorption entry is “incomplete”. Also, the hepatic extraction entry in data set [2] (once absorbed, in the absence of liver disease) is recorded as “about 50%”. For the same compound, the urinary excretion entry in data set [2] (with treatment, except in severe cholestatic liver disease) is given as “less than 1%”. In data set [3], the “bound to plasma protein” value was “at least 70%”.
